System: adult human subjects with type 2 diabetes at high risk for cardiovascular events
Test: Same trial: adverse events by preferred term with frequency of at least 0.1%
Type: in vivo
Conditions: full analysis set
Experimental: A long-term, multi-centre, international, randomised double-blind, placebo-controlled trial with 9340 human subjects was carried out with treatment for at least 3.5 years and up to 5 years per subject; and this trial concerned the incidence of cardiovascular events in adult human subjects with type 2 diabetes that were at high risk for cardiovascular events, including such subjects with existing cardiovascular disease. […] All trial endpoints were collected and assessed throughout the entire duration of the trial. Subject inclusion and exclusion criteria were as described in Table 2. The subject's characteristics, cardiovascular risk profile, renal function, cardiovascular medication, and antidiabetic treatment regimens of the randomised subjects at baseline were as shown in Tables 3a-e. Overall trial duration was planned as 18 months of recruitment period followed by 42 months of treatment from last subject randomised. […] After randomisation, treatment with liraglutide or placebo was double-blind throughout the trial. […] The term “placebo” as used herein refers to a formulation identical to the liraglutide formulation except not comprising liraglutide and the placebo was administered in the volume used in the equivalent liraglutide dosage. […] The dosage could be reduced at any time in the trial if required by the subject's tolerance to the trial product. […] The subcutaneous injection was made either in the abdomen, thigh or upper arm.
The term “baseline” herein (e.g. used as part of “baseline characteristics” or “baseline cardiovascular risk profile”) may refer to the level of a certain parameter (e.g. level of HbA1c) by the determination made in connection with the medical visit at the time of randomisation of the subject.
The results of this trial may be presented herein as a number or fraction of subjects experiencing an event. Alternatively, the results of this trial may be presented with hazard ratios estimated in a Cox proportional hazard model, which is the standard statistical model used for estimating time to an event. […] A 5% significance level is the standard level for investigating significance in clinical trials.

[1] = Preferred term: Diabetic foot infection

CCCCCCCCCCCCCCCC(=O)N[C@@H](CCC(=O)NCCCC[C@H](NC(=O)[C@H](C)NC(=O)[C@H](C)NC(=O)[C@H](CCC(N)=O)NC(=O)CNC(=O)[C@H](CCC(=O)O)NC(=O)[C@H](CC(C)C)NC(=O)[C@H](Cc1ccc(O)cc1)NC(=O)[C@H](CO)NC(=O)[C@H](CO)NC(=O)[C@@H](NC(=O)[C@H](CC(=O)O)NC(=O)[C@H](CO)NC(=O)[C@@H](NC(=O)[C@H](Cc1ccccc1)NC(=O)[C@@H](NC(=O)CNC(=O)[C@H](CCC(=O)O)NC(=O)[C@H](C)NC(=O)[C@@H](N)Cc1cnc[nH]1)[C@@H](C)O)[C@@H](C)O)C(C)C)C(=O)N[C@@H](CCC(=O)O)C(=O)N[C@@H](Cc1ccccc1)C(=O)N[C@H](C(=O)N[C@@H](C)C(=O)N[C@@H](Cc1c[nH]c2ccccc12)C(=O)N[C@@H](CC(C)C)C(=O)N[C@H](C(=O)N[C@@H](CCCNC(=N)N)C(=O)NCC(=O)N[C@@H](CCCNC(=N)N)C(=O)NCC(=O)O)C(C)C)[C@@H](C)CC)C(=O)O [Liraglutide, Arg34,Lys26-(N-epsilon-(gamma-L-glutamyl(N-alfa-hexadecanoyl)))-GLP-1(7-37)]
Adverse events by preferred term, % (proportion of subjects experiencing at least one event) [1]: 0.3%
Adverse events by preferred term, R (rate, events per 100 PYO) [1]: <0.1 events per 100 PYO
Adverse events by preferred term, % (proportion of subjects experiencing at least one event) (Preferred term: Diabetic foot): 2.8%
Adverse events by preferred term, R (rate, events per 100 PYO) (Preferred term: Diabetic foot): 1.0 events per 100 PYO
Adverse events by preferred term, % (proportion of subjects experiencing at least one event) (Preferred term: Gangrene): 0.2%
Adverse events by preferred term, R (rate, events per 100 PYO) (Preferred term: Gangrene): <0.1 events per 100 PYO
Adverse events by preferred term, % (proportion of subjects experiencing at least one event) (Preferred term: Skin ulcer): 0.6%
Adverse events by preferred term, R (rate, events per 100 PYO) (Preferred term: Skin ulcer): 0.2 events per 100 PYO

Source: patent US20190070266A1 (Novo Nordisk A/S, priority 2016, published 2019)
